# Test results taken from patent US20100291596A1, “SCREENING METHOD FOR AGENTS SUITABLE FOR THERAPY OF ALZHEIMER'S DISEASE” (FREIE UNIVERSITAT BERLIN, priority 2007, published 2010).
# Entries after “also recorded” stand apart in the source; their conditions may differ.
# Columns and labels:
# gamma-secretase [1] = target: T1, gamma-secretase (Homo sapiens, UniProt P49768); test: Confocal laser scanning microscopy of subcellular distribution of APP-CTF-YFP in HEK293 cells expressing SPA4CT-YFP; assay type: cell-based; details: 6 h
# T1 construct: HEK293 expressing SPA4CT-YFP were spread into a 96-well dish and were treated with NSAIDs or controls for 6 h; endogenous in cells; host or cells: HEK293 (ATCC CRL-1573)
# Method: HEK293 cells were transiently transfected with SPA4CT-YFP. After 24 h, cells were treated with varying concentrations (indicated in the figures) of different NSAIDs, gamma-secretase inhibitor N-[N-(3,5-difluorophenacetyl-L-alanyl)]-S-phenylglycine t-butyl ester (DAPT) or vehicle control for 6 h. The subcellular distribution of APP-CTF-YFP within living cells was analyzed by confocal laser scanning microscopy (LSM).
# (i) Cells expressing a fusion protein comprising the substrate of gamma-secretase (APP-CTF) and a fluorescent protein (fp) are incubated with the drug candidate in a 96 well plate. Prior to addition to the cells, the drug is dissolved in EtOH or DMSO. Controls are (1) untreated culture medium, (2) culture medium containing EtOH or DMSO, and (3) culture medium with known inhibitors of gamma-secretase. After incubation for 6 h to 24 hours the fluorescence is determined. If gamma-secretase is active, the fusion protein is degraded and the fluorescent protein spreads in the cell, e.g., the cell cytoplasm. As a consequence, intensive fluorescence is not detectable. If the gamma-secretase is inhibited, the substrate of gamma-secretase accumulates at the plasma membrane resulting in an intensive (and traceable) fluorescence (see, for further experimental details and results FIGS. 1 and 1.II and the figure legend). […]
# gamma-secretase [2] = target: T1, gamma-secretase; test: Quantification of gamma-secretase inhibition: average YFP fluorescence of HEK293 cells expressing APP-CTF-YFP; assay type: cell-based; details: 6 h
# Method: To quantify the effects of NSAIDs on gamma-secretase activity, HEK293 expressing SPA4CT-YFP were spread into a 96-well dish and were treated with NSAIDs or controls for 6 h. Intensity of YFP fluorescence was quantified with adjusted filters in a 96-well fluorescence reader (company BertholdTech, Mithras). (i) Cells expressing a fusion protein comprising the substrate of gamma-secretase (APP-CTF) and a fluorescent protein (fp) are incubated with the drug candidate in a 96 well plate. Prior to addition to the cells, the drug is dissolved in EtOH or DMSO. Controls are (1) untreated culture medium, (2) culture medium containing EtOH or DMSO, and (3) culture medium with known inhibitors of gamma-secretase. After incubation for 6 h to 24 hours the fluorescence is determined. If gamma-secretase is active, the fusion protein is degraded and the fluorescent protein spreads in the cell, e.g., the cell cytoplasm. As a consequence, intensive fluorescence is not detectable. If the gamma-secretase is inhibited, the substrate of gamma-secretase accumulates at the plasma membrane resulting in an intensive (and traceable) fluorescence (see, for further experimental details and results FIGS. 1 and 1.II and the figure legend). Drug candidates which inhibit the biological activity (i.e. cleavage of the substrate) of gamma-secretase are discarded.
# SH-SY5Y cells = test: MTS assay of viable SH-SY5Y cells for determination of cytotoxicity; assay type: cell-based, human; details: 24 h
# Method: SH-SY5Y cells expressing SPA4CT wt were spread at a density of 30.000 cells per 96-well. The cell culture media (OptiMEM, Invitrogen or serum containing medium, Biochrom) were supplemented with NSAIDs in varying concentrations as well as positive controls (without treatment or vehicle control) and negative controls (0.01% to 0.5% Triton X-100). Each well was incubated with 100 μl of supplemented media for 24 h. Then, 20 μl of the MTS stain solution (Promega, cell viability assay) was added and after 2-4 h incubation time the absorbance at 562 nm was measured.
# (§1) (ii) Initially, the cytotoxicity of the compounds in cultures of neuronal cells is determined using a cell proliferation assay or an assay based on viable cells (FIG. 2). Then, APP-CTF, APP or APPsw (APPsw: APP with the familial AD mutation “swedish” (K670N M671L); APP-CTF: APP-C-terminal fragment; CTF: after alpha- or beta-secretase cleavage) expressing cells are incubated with the drug candidate (two different concentrations, 96 well plate format). After incubation for 6 to 24 h the amount of Abeta42 secreted from the cell culture medium is determined using ELISA (see, for further experimental details and results FIG. 3 and the figure legend). Drug candidates causing a reduction of the amount of Abeta42 are assayed in a further step comprising ELISA and MALDI-MS. First, the amounts of Abeta40 and Abeta38 (as well as additional possible Abeta species) are quantified by use of ELISA. Then, the entire spectrum of secreted Abeta species is assayed using immunoprecipitation and MALDI-MS analysis (see, for further experimental details and results FIG. 4 and the figure legend). Compounds leading to reduced amounts of Abeta42 and increased amounts of shorter Abeta species are selected and assayed in a further screening step.
# [3] = target: T2, transmembrane sequence Abeta29-42 wt (Homo sapiens, UniProt P05067); test: ToxR system: dimerization of transmembrane sequence Abeta29-42 wt; assay type: cell-based
# T2 construct: the amino acid residues 29-42 of the Abeta region ([…]); expressed in transfected cells; host or cells: E. coli FHK12
# Method: ToxR-system E. coli FHK12 cells were transformed with accordant DNA constructs encoding for ToxR-fusionproteins containing at least a part of the APP transmembrane sequence (e.g. sequence Abeta 29-42). Cells were grown in either FHK medium or minimal medium (e.g. M9 medium) supplemented with NSAIDs and corresponding vehicle controls for 6 h. Then, aliquots of the cells were lysed and beta-galactosidase activity was measured (Langosch et al., 1996).
# The second screening step is carried out in order to find compounds selectively modulating only the processing of APP via binding to the transmembrane sequence (TMS) of APP. The APP-GxxxG motif is, inter alia, a perfect target structure for selecting compounds characterized by high affinity binding (Munter et al., EMBO J. 26 (2007), 1702-12). In the bacterial assay system (ToxR system) only the transmembrane sequence of APP containing the amino acid residues 29-42 of the Abeta region (GAIIGLMVGGVVIA) is expressed as part of a fusion protein. […] The rate of transcription correlates with the degree of dimerization and can be determined by measuring the conversion of a coloured substrate. […] After incubation for 2 to 24 h the degree of dimerization is determined. Binding of compounds to the amino acid sequence Abeta 29-42 results in weakening of dimerization and this is determined by measuring the decrease of enzymatic activity. […]
# [4] = tested on: Abeta species from APP G33A-transfected cells; test: ELISA quantification of Abeta species secreted from APP G33A-transfected cells; assay type: cell-based
# Method: (§2) Quantification of Abeta 42, Abeta 40 and Abeta38 with ELISA Stably transfected cells were plated at a density of 2.8×10^5 cells per 12-well. The day after splitting, 200 μl of fresh media supplemented with NSAIDs or control vehicles were added and incubated for 6 h. For Abeta40 and Abeta42-specific ELISAs, 50 μl of media were analyzed according to the manufacturer's instruction (The Genetics company (TGC), Basel, Switzerland). The same protocol was applied to determine Abeta38 levels, except that the antibody BAP-29 (provided by M. Brockhaus, Roche, Basel, Switzerland) was used.
# The effect of the drugs on the dimerization motif GxxxG of TMS of APP is assayed. Drug candidates were added to the cell culture medium containing APP-CTF, APP or APPsw expressing neuronal cells or cells containing the APP-processing machinery as described in Example 2. In addition, cell lines were assayed expressing altered APP molecules characterized by a mutated GxxxG motif. Binding of the compounds to the APP GxxxG motif results in an altered processing only of the wild type proteins, but not the altered GxxxG motif of mutants (see, for further experimental details and results FIG. 5 and the figure legend).
# Detection and characterization of the binding of the drug candidate to the GxxxG motif. Binding of the compounds to Abeta42 is verified by use of BIACORE and the KD-value is determined. Binding of the compounds to the GAIIG motif should lead to lack of binding to corresponding Abeta42-fragments or GxxxG mutant peptides. Similarly, using ELISA with synthetical peptides binding of NSAIDs can be determined via a competition assay (see, for further experimental details and results FIG. 6 and the figure legend).
# [5] = tested on: Abeta species secreted from SH-SY5Y cells which stably express wild type APP; test: ELISA quantification of Abeta species secreted from SH-SY5Y cells stably expressing wild type APP; assay type: cell-based, human; details: APP wt, 6 h
# Method: as §2, §1
structure (smiles),measurement,setting,value
"C[C@H](NC(=O)Cc1cc(F)cc(F)c1)C(=O)N[C@H](C(=O)OC(C)(C)C)c1ccccc1 [DAPT, N-[N-(3,5-difluorophenacetyl-L-alanyl)]-S-phenylglycine t-butyl ester]",Localization of APP-CTF-YFP (confocal images),gamma-secretase [1]; 1 μM added to cell culture medium,APP-CTF preferably accumulates at the plasma membrane
same,Average fluorescence compared to the DMSO control,gamma-secretase [2]; 1 μM,increased fluorescence
CC(C)OC(=O)C(C)(C)Oc1ccc(C(=O)c2ccc(Cl)cc2)cc1 [Fenofibrate],Concentration at which compound is no longer toxic (MTS assay),SH-SY5Y cells,5 µM
CC(C)Cc1ccc(C(C)C(=O)O)cc1 (stereo not shown) [Ibuprofen],Stability of dimerization of the transmembrane sequence,[3],weakens the strength of dimerization
same,Concentration at which compound is no longer toxic (MTS assay),SH-SY5Y cells,250 µM
same,Average fluorescence compared to the DMSO control,gamma-secretase [2]; 50 μM,slight increase of fluorescence
CSc1ccc(/C=C2/C(C)=C(CC(=O)O)c3cc(F)ccc32)cc1 [sulindac sulfide],Localization of APP-CTF-YFP (confocal images),gamma-secretase [1]; 30 μM,APP-CTF preferably accumulates at the ER/nuclear membrane
same,Stability of dimerization of the transmembrane sequence,[3],weakens the stability of dimerization of the transmembrane sequence of Abeta29-42 in a concentration dependent manner
same,Secreted amount of Abeta38,[4],does not substantially reduce
same,Secreted amount of Abeta40,[4],does not substantially reduce
same,Secreted amount of Abeta42,[4],no impact
same,Concentration at which compound is no longer toxic (MTS assay),SH-SY5Y cells,150 µM
same,Average fluorescence compared to the DMSO control,gamma-secretase [2]; 50 μM,slight increase of fluorescence
same,Secreted amount of Abeta38,[5],low and does not substantially reduce
same,Secreted amount of Abeta40,[5],low and does not substantially reduce
same,Secreted amount of Abeta42,[5],decreases in a concentration dependent manner; also recorded: reduces
